Experiment: mn = molality of the nth substance listed, in mol/kg
Conditions: 101 kPa, Liquid; for speed of sound: Sing-around technique in a fixed-path interferometer; for molar conductivity: dip type immersion conductance cell

O=P([O-])([O-])O.[Na+].[Na+] [disodium hydrogen phosphate] + O
Conditions	mass density [kg/m3]	molar conductivity [S·m2/mol]	speed of sound [m/s]
283.15 K, m1 = 0.007	1000.71	–	1449.3
283.15 K, m1 = 0.0104	1001.19	–	1450
283.15 K, m1 = 0.0141	1001.72	–	1450.8
283.15 K, m1 = 0.032	1004.23	–	1454.2
283.15 K, m1 = 0.0386	1005.14	–	1455.5
283.15 K, m1 = 0.0411	1005.5	–	1456
283.15 K, m1 = 0.0496	1006.7	–	1457.7
283.15 K, m1 = 0.0632	1008.57	–	1460.3
283.15 K, m1 = 0.0737	1010.03	–	1462.3
283.15 K, m1 = 0.1066	1014.53	–	1468.4
283.15 K, m1 = 0.181	1024.58	–	1481.8
283.15 K, m1 = 0.2454	1033.1	–	1493.2
283.15 K, m1 = 0.2498	1033.68	–	1493.8
283.15 K, m1 = 0.2939	1039.48	–	1501.6
283.15 K, m1 = 0.3192	1042.77	–	1506
283.15 K, m1 = 0.3723	1049.55	–	1514.9
283.15 K, m1 = 0.4483	1059.19	–	1527.7
283.15 K, m1 = 0.6185	1080.36	–	1555.7
283.15 K, m1 = 0.7841	1100.26	–	1582.3
288.15 K, m1 = 0.007	1000.1	–	1467.6
288.15 K, m1 = 0.0104	1000.57	–	1468.3
288.15 K, m1 = 0.0141	1001.09	–	1469
288.15 K, m1 = 0.032	1003.56	–	1472.3
288.15 K, m1 = 0.0386	1004.46	–	1473.6
288.15 K, m1 = 0.0411	1004.81	–	1474.1
288.15 K, m1 = 0.0496	1006	–	1475.7
288.15 K, m1 = 0.0632	1007.85	–	1478.2
288.15 K, m1 = 0.0737	1009.28	–	1480.1
288.15 K, m1 = 0.1066	1013.73	–	1486
288.15 K, m1 = 0.181	1023.64	–	1499.1
288.15 K, m1 = 0.2454	1032.07	–	1510.1
288.15 K, m1 = 0.2498	1032.64	–	1510.8
288.15 K, m1 = 0.2939	1038.38	–	1518.3
288.15 K, m1 = 0.3192	1041.64	–	1522.6
288.15 K, m1 = 0.3723	1048.34	–	1531.2
288.15 K, m1 = 0.4483	1057.89	–	1543.6
288.15 K, m1 = 0.6185	1078.87	–	1570.8
288.15 K, m1 = 0.7841	1098.62	–	1596.7
293.15 K, m1 = 0.007	999.185	–	1483.8
293.15 K, m1 = 0.0104	999.653	–	1484.5
293.15 K, m1 = 0.0141	1000.17	–	1485.2
293.15 K, m1 = 0.032	1002.61	–	1488.4
293.15 K, m1 = 0.0386	1003.49	–	1489.6
293.15 K, m1 = 0.0411	1003.85	–	1490.1
293.15 K, m1 = 0.0496	1005.01	–	1491.7
293.15 K, m1 = 0.0632	1006.84	–	1494.1
293.15 K, m1 = 0.0737	1008.26	–	1495.9
293.15 K, m1 = 0.1066	1012.65	–	1501.7
293.15 K, m1 = 0.181	1022.47	–	1514.3
293.15 K, m1 = 0.2454	1030.81	–	1525
293.15 K, m1 = 0.2498	1031.37	–	1525.7
293.15 K, m1 = 0.2939	1037.06	–	1533
293.15 K, m1 = 0.3192	1040.28	–	1537.1
293.15 K, m1 = 0.3723	1046.93	–	1545.5
293.15 K, m1 = 0.4483	1056.39	–	1557.6
293.15 K, m1 = 0.6185	1077.21	–	1584
293.15 K, m1 = 0.7841	1096.81	–	1609.1
298.15 K, m1 = 0.0049	–	0.01921	–
298.15 K, m1 = 0.007	998.012	–	1498
298.15 K, m1 = 0.0104	998.476	0.01802	1498.7
298.15 K, m1 = 0.0141	998.988	–	1499.3
298.15 K, m1 = 0.0154	–	0.01735	–
298.15 K, m1 = 0.0211	–	0.0167	–
298.15 K, m1 = 0.032	1001.4	–	1502.5
298.15 K, m1 = 0.0386	1002.28	–	1503.7
298.15 K, m1 = 0.0411	1002.63	–	1504.1
298.15 K, m1 = 0.0413	–	0.01534	–
298.15 K, m1 = 0.0496	1003.78	–	1505.6
298.15 K, m1 = 0.0632	1005.6	–	1508
298.15 K, m1 = 0.0712	–	0.014	–
298.15 K, m1 = 0.0737	1007	–	1509.8
298.15 K, m1 = 0.1066	1011.35	0.01306	1515.3
298.15 K, m1 = 0.1437	–	0.01234	–
298.15 K, m1 = 0.181	1021.07	–	1527.7
298.15 K, m1 = 0.1927	–	0.0116	–
298.15 K, m1 = 0.2454	1029.34	–	1538
298.15 K, m1 = 0.2475	–	0.011	–
298.15 K, m1 = 0.2498	1029.9	–	1538.6
298.15 K, m1 = 0.2939	1035.53	–	1545.8
298.15 K, m1 = 0.3192	1038.73	–	1549.8
298.15 K, m1 = 0.3697	–	0.00986	–
298.15 K, m1 = 0.3723	1045.32	–	1558
298.15 K, m1 = 0.4438	–	0.009224	–
298.15 K, m1 = 0.4483	1054.71	–	1569.7
298.15 K, m1 = 0.5295	–	0.008621	–
298.15 K, m1 = 0.6125	–	0.00816	–
298.15 K, m1 = 0.6185	1075.38	–	1595.4
298.15 K, m1 = 0.6768	–	0.00778	–
298.15 K, m1 = 0.7479	–	0.007445	–
298.15 K, m1 = 0.7841	1094.86	–	1619.8
298.15 K, m1 = 0.8346	–	0.00706	–
298.15 K, m1 = 0.9695	–	0.006536	–
303.15 K, m1 = 0.007	996.606	–	1510.4
303.15 K, m1 = 0.0104	997.065	–	1511
303.15 K, m1 = 0.0141	997.573	–	1511.7
303.15 K, m1 = 0.032	999.963	–	1514.7
303.15 K, m1 = 0.0386	1000.84	–	1515.9
303.15 K, m1 = 0.0411	1001.18	–	1516.3
303.15 K, m1 = 0.0496	1002.33	–	1517.8
303.15 K, m1 = 0.0632	1004.12	–	1520.1
303.15 K, m1 = 0.0737	1005.51	–	1521.8
303.15 K, m1 = 0.1066	1009.83	–	1527.2
303.15 K, m1 = 0.181	1019.47	–	1539.2
303.15 K, m1 = 0.2454	1027.67	–	1549.2
303.15 K, m1 = 0.2498	1028.22	–	1549.9
303.15 K, m1 = 0.2939	1033.82	–	1556.8
303.15 K, m1 = 0.3192	1036.99	–	1560.7
303.15 K, m1 = 0.3723	1043.54	–	1568.7
303.15 K, m1 = 0.4483	1052.87	–	1580.1
303.15 K, m1 = 0.6185	1073.41	–	1605.1
303.15 K, m1 = 0.7841	1092.78	–	1628.8

From the NIST ThermoML archive (doi:10.1016/j.fluid.2007.07.066)
